Data reported in ChEMBL document CHEMBL1201862, “PubChem BioAssay data set” (2004).
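Method: 48-hour compound exposure of cells in 96-well plates, five concentrations, linear interpolation of endpoints. GI50 is the concentration that inhibits growth by half.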 Calls of active or inactive are those of the source. Rule as the data show it: active = GI50 up to about 1.1 µM and inactive = higher.

Columns and labels:
Test in all cases: inhibition of tumour cell growth, NCI panel, 48 h
IGROV-1 = tested on: IGROV-1
OVCAR-5 = tested on: OVCAR-5
SK-OV-3 = tested on: SK-OV-3
SF-295 = tested on: SF-295
HT-29 = tested on: HT-29
OVCAR-3 = tested on: OVCAR-3
KM12 = tested on: KM12
HCT-15 = tested on: HCT-15
SK-MEL-2 = tested on: SK-MEL-2
SN12C = tested on: SN12C
ACHN = tested on: ACHN
SF-539 = tested on: SF-539
CAKI-1 = tested on: CAKI-1
XF498 = tested on: XF498
LOX IMVI = tested on: LOX IMVI
SNB-19 = tested on: SNB-19
RPMI-8226 = tested on: RPMI-8226
HOP-62 = tested on: HOP-62
BT-549 = tested on: BT-549
T47D = tested on: T47D

| SMILES | GI50 (IGROV-1) | GI50 (OVCAR-5) | GI50 (SK-OV-3) | GI50 (SF-295) | GI50 (HT-29) | GI50 (OVCAR-3) | GI50 (KM12) | GI50 (HCT-15) | GI50 (SK-MEL-2) | GI50 (SN12C) | GI50 (ACHN) | GI50 (SF-539) | GI50 (CAKI-1) | GI50 (XF498) | GI50 (LOX IMVI) | GI50 (SNB-19) | GI50 (RPMI-8226) | GI50 (HOP-62) | GI50 (BT-549) | GI50 (T47D) |
| --- | --- | --- | --- | --- | --- | --- | --- | --- | --- | --- | --- | --- | --- | --- | --- | --- | --- | --- | --- | --- |
| Cc1ccc(S(=O)(=O)NC(C)C(=O)O)cc1 (stereo not given) | > 100 µM (inactive) | > 100 µM (inactive) | > 100 µM (inactive) | > 100 µM (inactive) | > 100 µM (inactive) | > 100 µM (inactive) | > 100 µM (inactive) | > 100 µM | > 100 µM (inactive) | > 100 µM (inactive) | > 100 µM (inactive) | > 100 µM (inactive) | > 100 µM (inactive) | > 100 µM (inactive) | > 100 µM (inactive) | > 100 µM (inactive) | > 100 µM (inactive) | – | – | – |
| COc1cc2ccc3c4cc(OC)c(OCc5ccccc5)cc4cnc3c2cc1OC | > 100 µM (inactive) | > 100 µM (inactive) | > 100 µM (inactive) | > 100 µM (inactive) | > 100 µM (inactive) | > 100 µM (inactive) | > 100 µM (inactive) | – | > 100 µM (inactive) | > 100 µM (inactive) | > 100 µM (inactive) | – | > 100 µM (inactive) | > 100 µM (inactive) | – | – | 61.9 µM (inactive) | > 100 µM (inactive) | – | – |
| CN1CCN(C(=O)c2cn(Cc3cncn3Cc3ccc4c(c3)OCO4)cc2-c2cccc3ccccc23)CC1 | 2.85 µM (inactive) | 24.8 µM (inactive) | 22.7 µM (inactive) | 6.24 µM (inactive) | 3.11 µM (inactive) | 25.5 µM (inactive) | 0.782 µM (active) | 17 µM | 0.268 µM (active) | 17.5 µM (inactive) | 9.98 µM (inactive) | 21.1 µM (inactive) | 20.5 µM (inactive) | – | 4.76 µM (inactive) | 14.3 µM (inactive) | 7.05 µM (inactive) | 26.9 µM (inactive) | 9.75 µM (inactive) | 15.7 µM (inactive) |
| COc1cc(OC)cc(Oc2nc3ccccc3nc2C(F)(F)F)c1 | 5.89 µM (inactive) | 45.1 µM (inactive) | > 100 µM (inactive) | 28.8 µM (inactive) | > 100 µM (inactive) | > 100 µM (inactive) | > 100 µM (inactive) | 51.4 µM | 48.6 µM (inactive) | > 100 µM (inactive) | > 100 µM (inactive) | 52.5 µM (inactive) | > 100 µM (inactive) | – | > 100 µM (inactive) | 53.7 µM (inactive) | > 100 µM (inactive) | 19.3 µM (inactive) | > 100 µM (inactive) | > 100 µM (inactive) |
| CCCCCCCCCCCCOc1ccc(/C=C/C2=[N+](CCCl)CCO2)cc1 | 25.4 µM (inactive) | > 100 µM (inactive) | > 100 µM (inactive) | 45.8 µM (inactive) | > 100 µM (inactive) | 19.4 µM (inactive) | 38 µM (inactive) | 31.7 µM | > 100 µM (inactive) | 77.4 µM (inactive) | 50.2 µM (inactive) | > 100 µM (inactive) | > 100 µM (inactive) | – | 17.7 µM (inactive) | > 100 µM (inactive) | 20.1 µM (inactive) | > 100 µM (inactive) | > 100 µM (inactive) | 76.4 µM (inactive) |
| COc1cccc(OC)c1C1ON=C(c2ccccc2)N1C12CC3CC(CC(C3)C1)C2 (stereo not given) | > 100 µM (inactive) | 46.2 µM (inactive) | 38.1 µM (inactive) | > 100 µM (inactive) | > 100 µM (inactive) | > 100 µM (inactive) | > 100 µM (inactive) | > 100 µM | 64 µM (inactive) | > 100 µM (inactive) | 35.3 µM (inactive) | > 100 µM (inactive) | > 100 µM (inactive) | – | > 100 µM (inactive) | 13.1 µM (inactive) | 4.41 µM (inactive) | 80.9 µM (inactive) | > 100 µM (inactive) | 8.3 µM (inactive) |
| CCc1cccc(CC)c1NC(=O)C1=CNC(C)=C(C(=O)Nc2c(CC)cccc2CC)C1c1ccc(O)c(OC)c1 (stereo not given) | 36.8 µM (inactive) | 54.8 µM (inactive) | > 100 µM (inactive) | 29 µM (inactive) | 31.1 µM (inactive) | 19 µM (inactive) | 24.6 µM (inactive) | – | 26.2 µM (inactive) | 57.8 µM (inactive) | 32.5 µM (inactive) | 17.6 µM (inactive) | 39.8 µM (inactive) | 26.6 µM (inactive) | 31.5 µM (inactive) | 54.1 µM (inactive) | 16.8 µM (inactive) | 33.3 µM (inactive) | – | – |
| FC(F)(F)C12C34C=CC5(CCC6(C=CC1(CC3)O6)C52C(F)(F)F)O4 (stereo not given) | > 100 µM (inactive) | > 100 µM (inactive) | > 100 µM (inactive) | > 100 µM (inactive) | > 100 µM (inactive) | > 100 µM (inactive) | > 100 µM (inactive) | – | > 100 µM (inactive) | > 100 µM (inactive) | > 100 µM (inactive) | > 100 µM (inactive) | > 100 µM (inactive) | > 100 µM (inactive) | > 100 µM (inactive) | > 100 µM (inactive) | – | > 100 µM (inactive) | – | – |
